According to article PMC8706783 (Pharmaceutics, 2021):

Legend:
CYP2B6 mRNA = tested on: CYP2B6 mRNA; parameters: method as in PMID 23965226; conditions: 10 μM DPV, colorectal tissue from three human donors; cited from earlier work
UGT2B7 = target: T1, UGT2B7 (Homo sapiens, UniProt P16662); experiment: Enzyme inhibition assay, UGT2B7; format: in vitro ADME; parameters: from tissue; conditions: HLM; UGT2B7 zidovudine glucuronidation
T1 sequence (P16662 24-529): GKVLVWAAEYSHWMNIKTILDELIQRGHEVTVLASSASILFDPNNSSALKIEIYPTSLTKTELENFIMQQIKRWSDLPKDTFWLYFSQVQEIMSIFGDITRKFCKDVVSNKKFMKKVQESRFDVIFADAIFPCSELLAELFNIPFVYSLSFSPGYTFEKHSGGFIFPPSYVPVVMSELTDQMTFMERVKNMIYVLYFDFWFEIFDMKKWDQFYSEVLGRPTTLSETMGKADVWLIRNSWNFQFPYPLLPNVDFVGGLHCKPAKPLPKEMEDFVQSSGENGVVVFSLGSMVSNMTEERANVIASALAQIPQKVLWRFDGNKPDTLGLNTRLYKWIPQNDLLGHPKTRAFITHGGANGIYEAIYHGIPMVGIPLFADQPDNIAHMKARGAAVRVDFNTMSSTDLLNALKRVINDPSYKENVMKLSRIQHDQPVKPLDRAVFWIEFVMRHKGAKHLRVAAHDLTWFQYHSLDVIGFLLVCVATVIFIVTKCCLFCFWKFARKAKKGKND

For `Cc1cc(C)c(Nc2ccnc(Nc3ccc(C#N)cc3)n2)c(C)c1` [DPV, Dapivirine], the “CYP2B6 mRNA change” value (CYP2B6 mRNA) is listed as “inhibition in one donor” and the IC50 (UGT2B7) is listed as 17.2 µM.
